The subject of one experiment is mouse cell culture. The note with it: U.S. Ser. No. 11/268,690; cited from earlier work.
Another experiment has as its system human cell culture. The note with it: U.S. Ser. No. 11/268,690; cited from earlier work.
For experiment [1] the following is noted: intravenous and oral administration of an aqueous solution; U.S. Ser. No. 11/268,690; cited from earlier work.
The test system of experiment [2] is [3H]-cholesterol-loaded J774 macrophages. The experiment is described as follows: in vivo mouse cholesterol export model. Also on record: species or system mice. On the procedure:
In these experiments, mice (n=4) were first injected intravenously with [^3H]cholesterol-laden macrophages and then injected 24 hours later with the exemplary retro-inversal D amino acid peptide RFHNPDKGSRGWENAAQDA (D-form; SEQ ID NO: 3). This peptide is the reverse sequence of the forward human D amino acid 19-mer peptide ADQAANEWGRSGKDPNHFR (D-form; SEQ ID NO:11) disclosed in U.S. patent application Ser. No. 11/268,690, filed Nov. 7, 2005, teachings of which are herein incorporated by reference in their entirety.
The retro-inversal D amino acid peptide RFHNPDKGSRGWENAAQDA (SEQ ID NO: 3) at a total dose of 300 ug, was injected into the tail vein of each mouse that was previously (24 hours earlier) injected with H^3-radiolabeled cholesterol-loaded macrophages. […] The blood samples were centrifuged to separate the red blood cells from the plasma and the [^3H]-cholesterol in plasma was determined by scintillation counting. […]
Cells were washed four times with PBS/BSA and then detached from the culture dishes. […] Baseline cholesterol efflux was determined by measuring the amount of [^3H]-cholesterol in plasma by scintillation spectrometry. […]
Five hours following intravenous injection of the reverse peptide, approximately 25 μl of blood were collected from the tail vein of each animal into heparinized capillary tubes and cholesterol efflux was determined as described above. […]

Square brackets hold non-standard residues; d marks the D form. Ends that are not written are not given here.

We go through 2 sequences from patent US7674772B2, “Compositions and methods for treating atherosclerosis” (Queen's University at Kingston, priority 2006, dated 2010).

For “ADQAANEWGRSGKDPNHFR ([dA][dD][dQ][dA][dA][dN][dE][dW]G[dR][dS]G[dK][dD][dP][dN][dH][dF][dR]) [SEQ ID NO:11, forward human SAA 1.1 D amino acid 19-mer peptide disclosed in U.S. Ser. No. 11/268,690]”, the “cholesterol efflux in vitro” value in the experiment on mouse cell culture and in the experiment on human cell culture was “effective at increasing cholesterol efflux” throughout. The “cholesterol efflux in vivo” value in experiment [1] was “effective at increasing cholesterol efflux”.

As to “RFHNPDKGSRGWENAAQDA ([dR][dF][dH][dN][dP][dD][dK]G[dS][dR]G[dW][dE][dN][dA][dA][dQ][dD][dA]) [SEQ ID NO: 3]”, in experiment [2] (300 μg total dose, tail vein injection, [3H]-cholesterol in plasma 5 hours post injection, n=4, p=0.0004), the “increase in macrophage cholesterol export relative to control animals treated with saline vehicle alone” value is listed as “over 2.5 fold”. Moreover, the “in vivo macrophage cholesterol export / cholesterol efflux” value in experiment [2] (intravenous, aqueous vehicle, versus vehicle control group (p=0.0004)) was “significantly enhanced”.
